One may read the Cmax as the peak of the concentration-time curve.

The results in this text go back to patent US20110055943A1, “NOVEL THERAPEUTIC TARGETS IN INFLAMMATORY BOWEL DISEASE” (SALIX PHARMACEUTICALS, LTD., priority 2007, published 2011).

A short description of series [1]: Serum pharmacokinetics of RIF and RIFax in mice (p.o., i.p., i.v.; LC-MS/MS). The class given is in vivo. As for the experimental part:
The maximum concentration in serum (Cmax) was obtained from the original data. […] Intestinal contents were weighted, and homogenized in methanol (100 mg/ml). The homogenate was centrifuged at 14,000 rpm for 10 min at 4° C.
The mass spectrometer was operated in the turbo ion spray mode with positive ion detection. The turbo ion spray temperature was maintained at 300° C., and a voltage of 4.8 kV was applied to the sprayer needle. N2 was used as the turbo ion spray and nebulizing gas.

Another series deals with T1, CAR (Mus musculus, UniProt O35627).
T1 construct: expressed in transfected cells; host or cells: HCT116
T1 sequence (O35627 1-358): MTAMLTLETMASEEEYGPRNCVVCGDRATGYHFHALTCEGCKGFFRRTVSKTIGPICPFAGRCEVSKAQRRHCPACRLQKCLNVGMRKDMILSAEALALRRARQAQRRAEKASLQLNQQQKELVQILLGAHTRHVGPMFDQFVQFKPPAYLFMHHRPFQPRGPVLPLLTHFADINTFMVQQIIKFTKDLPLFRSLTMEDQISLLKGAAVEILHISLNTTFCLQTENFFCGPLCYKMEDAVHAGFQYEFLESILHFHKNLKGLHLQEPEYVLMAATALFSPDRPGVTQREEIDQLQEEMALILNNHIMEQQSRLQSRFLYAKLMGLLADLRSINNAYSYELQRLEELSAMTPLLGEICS
The series is described as follows: Cell-based reporter assay, transfected HCT116 cells, dual luciferase. To be noted: 10 μM, 24 h. Here is the method:
(§1) A hepG2 cell line (DPX2) with stable expression of recombinant human PXR and a PXR-response element cloned in a luciferase vector was obtained from Puracyp Inc. (Carlsbad, Calif.). The construction and validation of the cell lines were reported previously (Yueh et al., 2005). The cells were seeded according to the distributor's instruction. […] The activation of PXR was determined by measuring the firefly luciferase activity 24 h later, followed by normalization of luciferase activity by protein concentrations. For cell-based reporter assay of nuclear receptors CAR, PPARα, PPARγ, and FXR, HCT116 cells were plated on 24-well plates (5×10^4 cells/well, cultured in DMEM containing 10% FBS), and transfected with the various expression vectors using Fugene transfection reagent (Roche, Indianapolis, Ind.). The mouse PPAR and CAR vectors were described in previous reports (Kliewer et al., 1992; Swales et al., 2005). The mouse FXR vector was provided by Dr Christopher J. Sinal. […] TCPOBOP (250 nM), Wy-14,643 (10 μM), rosiglitazone (10 μM), and GW4064 (25 μM) were used as positive controls respectively for mouse CAR, PPARα, PPARγ, and FXR. A standard dual luciferase assay was used and normalized to a cotransfected control reporter (Promega, Madison, Wis.). Each in vitro assay was repeated at least three times.
For orientation: In a reporter assay the amount or activity of a reporter protein is the signal.

A further series addresses T2, FXR (Mus musculus, UniProt Q60641).
T2 construct: expressed in transfected cells; host or cells: HCT116
T2 sequence (Q60641 1-488): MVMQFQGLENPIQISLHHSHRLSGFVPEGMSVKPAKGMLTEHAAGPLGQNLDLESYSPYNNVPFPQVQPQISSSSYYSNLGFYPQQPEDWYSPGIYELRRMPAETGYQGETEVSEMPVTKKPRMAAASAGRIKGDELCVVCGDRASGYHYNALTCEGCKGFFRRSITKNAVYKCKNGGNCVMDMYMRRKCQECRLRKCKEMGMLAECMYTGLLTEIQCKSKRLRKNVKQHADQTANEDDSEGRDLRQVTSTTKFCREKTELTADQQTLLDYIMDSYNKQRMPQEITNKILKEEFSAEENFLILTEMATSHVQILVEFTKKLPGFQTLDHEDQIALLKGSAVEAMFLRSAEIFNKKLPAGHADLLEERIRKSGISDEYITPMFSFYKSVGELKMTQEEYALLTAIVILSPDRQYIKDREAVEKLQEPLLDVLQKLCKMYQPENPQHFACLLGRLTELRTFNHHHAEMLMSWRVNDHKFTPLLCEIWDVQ
The description is as above. To be noted: 10 μM, 24 h. As for the experimental part: as §1

The target of another series is T3, PPARα (Mus musculus, UniProt P23204).
T3 construct: expressed in transfected cells; host or cells: HCT116
T3 sequence (P23204 1-468): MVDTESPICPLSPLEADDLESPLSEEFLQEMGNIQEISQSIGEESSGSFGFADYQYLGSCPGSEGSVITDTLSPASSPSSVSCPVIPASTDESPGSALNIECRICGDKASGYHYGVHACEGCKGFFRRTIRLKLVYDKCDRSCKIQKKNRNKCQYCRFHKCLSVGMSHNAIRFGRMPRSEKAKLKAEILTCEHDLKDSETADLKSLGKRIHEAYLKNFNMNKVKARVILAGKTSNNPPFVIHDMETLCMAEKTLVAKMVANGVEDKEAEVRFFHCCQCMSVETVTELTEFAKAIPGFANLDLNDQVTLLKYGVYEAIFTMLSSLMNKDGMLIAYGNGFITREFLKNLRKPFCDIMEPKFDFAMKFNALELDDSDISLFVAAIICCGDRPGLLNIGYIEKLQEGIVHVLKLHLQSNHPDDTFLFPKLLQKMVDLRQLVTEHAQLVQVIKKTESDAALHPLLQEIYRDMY
The series is described as above. To be noted: 10 μM, 24 h. As for the experimental part: as §1

As to `COC1/C=C/OC2(C)Oc3c(C)c(O)c4c(O)c(c5c(nc6cc(C)ccn65)c4c3C2=O)NC(=O)/C(C)=C\C=C\C(C)C(O)C(C)C(O)C(C)C(OC(C)=O)C1C` (stereo not drawn) [RIFax, 4-Deoxy-4′-methylpyrido[1′,2′-1,2]imidazo[5,4-c]rifamycin SV], the “AUC compared with RIF” value in series [1] (mice, 10 mg/kg i.v.) was “-low”. For the same molecule, the “T1/2 compared with RIF” value in series [1] (mouse, in vivo, iv, 10 mg/kg) is on record as “ultra-short”. In series [1] (mouse, serum, mice, single oral dose 10 mg/kg, read-out: Cmax of serum), the Cmax was found to be 40 nM. At CAR, the “change in luciferase activity in the presence of CAR” value was “no significant change”. The “change in luciferase activity in the presence of FXR” value at FXR is recorded as “no significant change”. At PPARα, the “change in luciferase activity in the presence of PPARα” value was “no significant change”.
